{"source": "patent US11427606B2", "about": "“Azithromycin derivatives containing a phosphonium ion as anticancer agents” (Rising Tide Foundation, priority 2017, dated 2022)", "data": [{"test_system": "MDA-231 cancer cells", "assay": "Inhibition of proliferation assay: cell confluence (IncuCyte imaging)", "format": "cell-based", "settings": "compound at 10 uM; MDA-231 cells; IncuCyte images every 3 h over 4-5 d; relative confluence normalised to time zero", "text": "Inhibition of Proliferation Assay\nThe confluence value is a surrogate for cell proliferation and growth. The value is expressed as a percent confluence, which represents the fraction of culture dish-surface that is occupied by cells. As the number of cells in the dish increases over time due to proliferation, so will their coverage of that surface increase. Expansion of the cell population on the cell culture-dish surface and confluence have mostly a linear relationship until the cells on the plate surface begin to reach saturation or maximum density.\nConfluence is determined based on image analysis. Image based software can identify objects in the image field base on changes to pixel density in a grey scale image. The software can then assign a mask to those pixels within the object. Objects can be ‘gated’ out based on size and shape. To determine cell confluence, images of cells are first masked as objects. The surface area of the image that is masked is measured and compared to the total surface area of the culture dish surface to obtain a percent confluence.\nMDA-231 cancer cells were obtained from ATCC. Cells were cultured in Dulbecco's Modified Eagle Medium (DMEM) supplemented with 10% Fetal Bovine Serum (FBS), 2 mM Glutamax, 1 mM Non Essential Amino Acid (NEAA) solution and 1 mM sodium pyruvate. […] Final DMSO concentrations were […]. Images were acquired with an IncuCyte Live Cell Imaging microscopy (Essen Bioscience) at every 3 h under cell culture conditions with 10× objective over 4-5 d. Cell confluence was calculated from one field of view per well using the IncuCyte in-built algorithm. Relative confluence values were obtained by normalising each value to the time zero value in each sample.", "units": {"% Confluence": "%"}, "values": [{"compound": "CC[C@H]1OC(=O)[C@H](C)[C@@H](O[C@H]2C[C@@](C)(OC)[C@@H](O)[C@H](C)O2)[C@H](C)[C@@H](O[C@@H]2O[C@H](C)C[C@H](N(C)C)[C@H]2O)[C@](C)(O)C[C@@H](C)CN(C(=O)CCCCCCC[P+](C2CCCCC2)(C2CCCCC2)C2CCCCC2)[C@H](C)[C@@H](O)[C@]1(C)O", "note": "[Example 7, tricyclohexyl({8-[(2R,3S,4R,5R,8R,10R,11R,12S,13S,14R)-11-{[(2S,3R,4S,6R)-4-(dimethylamino)-3-hydroxy-6-methyloxan-2-yl]oxy}-2-ethyl-3,4,10-trihydroxy-13-{[(2R,4R,5S,6S)-5-hydroxy-4-methoxy-4,6-dimethyloxan-2-yl]oxy}-3,5,8,10,12,14-hexamethyl-15-oxo-1-oxa-6-azacyclopentadecan-6-yl]-8-oxooctyl})phosphonium hexafluorophosphate(V)]", "% Confluence": 75.3}, {"compound": "CC[C@H]1OC(=O)[C@H](C)[C@@H](O[C@H]2C[C@@](C)(OC)[C@@H](O)[C@H](C)O2)[C@H](C)[C@@H](O[C@@H]2O[C@H](C)C[C@H](N(C)C)[C@H]2O)[C@](C)(O)C[C@@H](C)CN(CCCCCCCC[P+](c2ccccc2)(c2ccccc2)c2ccc(N(C)C)cc2)[C@H](C)[C@@H](O)[C@]1(C)O.[I-]", "note": "[Example 12]", "% Confluence": 4.1}, {"compound": "CC[C@H]1OC(=O)[C@H](C)[C@@H](O[C@H]2C[C@@](C)(OC)[C@@H](O)[C@H](C)O2)[C@H](C)[C@@H](O[C@@H]2O[C@H](C)C[C@H](N(C)C)[C@H]2O)[C@](C)(O)C[C@@H](C)CN(C(=O)CCCCCCCCCCC[P+](C)(C)C)[C@H](C)[C@@H](O)[C@]1(C)O.[Cl-]", "note": "[Example 24, {12-[(2R,3S,4R,5R,8R,10R,11R,12S,13S,14R)-11-{[(2S,3R,4S,6R)-4-(dimethylamino)-3-hydroxy-6-methyloxan-2-yl]oxy}-2-ethyl-3,4,10-trihydroxy-13-{[(2R,4R,5S,6S)-5-hydroxy-4-methoxy-4,6-dimethyloxan-2-yl]oxy}-3,5,8,10,12,14-hexamethyl-15-oxo-1-oxa-6-azacyclopentadecan-6-yl]-12-oxododecyl}trimethylphosphonium chloride]", "% Confluence": 140}, {"compound": "CC[C@H]1OC(=O)[C@H](C)[C@@H](O[C@H]2C[C@@](C)(OC)[C@@H](O)[C@H](C)O2)[C@H](C)[C@@H](O[C@@H]2O[C@H](C)C[C@H](N(C)C)[C@H]2O)[C@](C)(O)C[C@@H](C)CN(CCCCCCCC[P+](c2ccc(OC)cc2)(c2ccc(OC)cc2)c2ccc(OC)cc2)[C@H](C)[C@@H](O)[C@]1(C)O.[I-]", "note": "[Example 13]", "% Confluence": 4.8}, {"compound": "CC[C@H]1OC(=O)[C@H](C)[C@@H](O[C@H]2C[C@@](C)(OC)[C@@H](O)[C@H](C)O2)[C@H](C)[C@@H](O[C@@H]2O[C@H](C)C[C@H](N(C)C)[C@H]2O)[C@](C)(O)C[C@@H](C)CN(C(=O)CCCCCCCCCCC[PH](c2ccccc2)(c2ccccc2)C(C)C)[C@H](C)[C@@H](O)[C@]1(C)O", "note": "[Example 33, {12-[(2R,3S,4R,5R,8R,10R,11R,12S,13S,14R)-11-{[(2S,3R,4S,6R)-4-(dimethylamino)-3-hydroxy-6-methyloxan-2-yl]oxy}-2-ethyl-3,4,10-trihydroxy-13-{[(2R,4R,5S,6S)-5-hydroxy-4-methoxy-4,6-dimethyloxan-2-yl]oxy}-3,5,8,10,12,14-hexamethyl-15-oxo-1-oxa-6-azacyclopentadecan-6-yl]-12-oxododecyl}diphenyl(propan-2-yl)phosphonium chloride]", "% Confluence": 5.6}, {"compound": "CC[C@H]1OC(=O)[C@H](C)[C@@H](O[C@H]2C[C@@](C)(OC)[C@@H](O)[C@H](C)O2)[C@H](C)[C@@H](O[C@@H]2O[C@H](C)C[C@H](N(C)C)[C@H]2O)[C@](C)(O)C[C@@H](C)CN(C(=O)CCCCCCC[P+](c2cc(C)cc(C)c2)(c2cc(C)cc(C)c2)c2cc(C)cc(C)c2)[C@H](C)[C@@H](O)[C@]1(C)O", "note": "[Example 16, {8-[(2R,3S,4R,5R,8R,10R,11R,12S,13S,14R)-11-{[(2S,3R,4S,6R)-4-(dimethylamino)-3-hydroxy-6-methyloxan-2-yl]oxy}-2-ethyl-3,4,10-trihydroxy-13-{[(2R,4R,5S,6S)-5-hydroxy-4-methoxy-4,6-dimethyloxan-2-yl]oxy}-3,5,8,10,12,14-hexamethyl-15-oxo-1-oxa-6-azacyclopentadecan-6-yl]-8-oxooctyl}tris(3,5-dimethylphenyl)phosphonium hexafluorophosphate(V)]", "% Confluence": 10}, {"compound": "CC[C@H]1OC(=O)[C@H](C)[C@@H](O[C@H]2C[C@@](C)(OC)[C@@H](O)[C@H](C)O2)[C@H](C)[C@@H](O[C@@H]2O[C@H](C)C[C@H](N(C)C)[C@H]2O)[C@](C)(O)C[C@@H](C)CN(C(=O)CCCCCCCCCCC[PH](c2ccccc2)(c2ccccc2)C2CCOCC2)[C@H](C)[C@@H](O)[C@]1(C)O", "note": "[Example 35, {12-[(2R,3S,4R,5R,8R,10R,11R,12S,13S,14R)-11-{[(2S,3R,4S,6R)-4-(dimethylamino)-3-hydroxy-6-methyloxan-2-yl]oxy}-2-ethyl-3,4,10-trihydroxy-13-{[(2R,4R,5S,6S)-5-hydroxy-4-methoxy-4,6-dimethyloxan-2-yl]oxy}-3,5,8,10,12,14-hexamethyl-15-oxo-1-oxa-6-azacyclopentadecan-6-yl]-12-oxododecyl}(oxan-4-yl)diphenylphosphonium chloride]", "% Confluence": 97.2}, {"compound": "CC[C@H]1OC(=O)[C@H](C)[C@@H](O[C@H]2C[C@@](C)(OC)[C@@H](O)[C@H](C)O2)[C@H](C)[C@@H](O[C@@H]2O[C@H](C)C[C@H](N(C)C)[C@H]2O)[C@](C)(O)C[C@@H](C)CN(C(=O)CCCCCCC[P+](c2ccccc2)(c2ccccc2)c2ccccn2)[C@H](C)[C@@H](O)[C@]1(C)O", "note": "[Example 8, {8-[(2R,3S,4R,5R,8R,10R,11R,12S,13S,14R)-11-{[(2S,3R,4S,6R)-4-(dimethylamino)-3-hydroxy-6-methyloxan-2-yl]oxy}-2-ethyl-3,4,10-trihydroxy-13-{[(2R,4R,5S,6S)-5-hydroxy-4-methoxy-4,6-dimethyloxan-2-yl]oxy}-3,5,8,10,12,14-hexamethyl-15-oxo-1-oxa-6-azacyclopentadecan-6-yl]-8-oxooctyl}diphenyl(pyridine-2-yl)phosphonium hexafluorophosphate(V)]", "% Confluence": 83}, {"compound": "CC[C@H]1OC(=O)[C@H](C)[C@@H](O[C@H]2C[C@@](C)(OC)[C@@H](O)[C@H](C)O2)[C@H](C)[C@@H](O[C@@H]2O[C@H](C)C[C@H](N(C)C)[C@H]2O)[C@](C)(O)C[C@@H](C)CN(C(=O)CCCCCCCCCCC[PH](c2ccccc2)(c2ccccc2)C2COC2)[C@H](C)[C@@H](O)[C@]1(C)O", "note": "[Example 32, {12-[(2R,3S,4R,5R,8R,10R,11R,12S,13S,14R)-11-{[(2S,3R,4S,6R)-4-(dimethylamino)-3-hydroxy-6-methyloxan-2-yl]oxy}-2-ethyl-3,4,10-trihydroxy-13-{[(2R,4R,5S,6S)-5-hydroxy-4-methoxy-4,6-dimethyloxan-2-yl]oxy}-3,5,8,10,12,14-hexamethyl-15-oxo-1-oxa-6-azacyclopentadecan-6-yl]-12-oxododecyl}(oxetan-3-yl)diphenylphosphonium chloride]", "% Confluence": 129}, {"compound": "CC[C@H]1OC(=O)[C@H](C)[C@@H](O[C@H]2C[C@@](C)(OC)[C@@H](O)[C@H](C)O2)[C@H](C)[C@@H](O[C@@H]2O[C@H](C)C[C@H](N(C)C)[C@H]2O)[C@](C)(O)C[C@@H](C)CN(C(=O)CCCCCCCCCCC[PH](c2cc(C)cc(C)c2)(c2cc(C)cc(C)c2)c2cc(C)cc(C)c2)[C@H](C)[C@@H](O)[C@]1(C)O", "note": "[Example 29, {12-[(2R,3S,4R,5R,8R,10R,11R,12S,13S,14R)-11-{[(2S,3R,4S,6R)-4-(dimethylamino)-3-hydroxy-6-methyloxan-2-yl]oxy}-2-ethyl-3,4,10-trihydroxy-13-{[(2R,4R,5S,6S)-5-hydroxy-4-methoxy-4,6-dimethyloxan-2-yl]oxy}-3,5,8,10,12,14-hexamethyl-15-oxo-1-oxa-6-azacyclopentadecan-6-yl]-12-oxododecyl}tris(3,5-dimethylphenyl)phosphonium chloride]", "% Confluence": 4.6}, {"compound": "tris(4-chlorophenyl)({8-[(2R,3S,4R,5R,8R,10R,11R,12S,13S,14R)-11-{[(2S,3R,4S,6R)-4-(dimethylamino)-3-hydroxy-6-methyloxan-2-yl]oxy}-2-ethyl-3,4,10-trihydroxy-13-{[(2R,4R,5S,6S)-5-hydroxy-4-methoxy-4,6-dimethyloxan-2-yl]oxy}-3,5,8,10,12,14-hexamethyl-15-oxo-1-oxa-6-azacyclopentadecan-6-yl]-8-oxooctyl})phosphoniumhexafluorophosphate(V) [Example 4]", "% Confluence": 87.7}, {"compound": "CC[C@H]1OC(=O)[C@H](C)[C@@H](O[C@H]2C[C@@](C)(OC)[C@@H](O)[C@H](C)O2)[C@H](C)[C@@H](O[C@@H]2O[C@H](C)C[C@H](N(C)C)[C@H]2O)[C@](C)(O)C[C@@H](C)CN(C(=O)CCCCCCCCCCC[PH](CCOC)(c2ccccc2)c2ccccc2)[C@H](C)[C@@H](O)[C@]1(C)O", "note": "[Example 34, {12-[(2R,3S,4R,5R,8R,10R,11R,12S,13S,14R)-11-{[(2S,3R,4S,6R)-4-(dimethylamino)-3-hydroxy-6-methyloxan-2-yl]oxy}-2-ethyl-3,4,10-trihydroxy-13-{[(2R,4R,5S,6S)-5-hydroxy-4-methoxy-4,6-dimethyloxan-2-yl]oxy}-3,5,8,10,12,14-hexamethyl-15-oxo-1-oxa-6-azacyclopentadecan-6-yl]-12-oxododecyl}(2-methoxyethyl)diphenylphosphonium chloride]", "% Confluence": 5.4}]}]}
